We go through two molecules from US8961944B2, “Use of delta-tocopheryl-carbohydrate as a depigmenting agent” (Pierre Fabre Dermo-Cosmetique, priority 2009, dated 2015).

Where two headings read alike, the source gives them in different places.

One assay deals with T1, glucocerebrosidase (Homo sapiens, UniProt P04062).
T1 sequence (P04062 40-536): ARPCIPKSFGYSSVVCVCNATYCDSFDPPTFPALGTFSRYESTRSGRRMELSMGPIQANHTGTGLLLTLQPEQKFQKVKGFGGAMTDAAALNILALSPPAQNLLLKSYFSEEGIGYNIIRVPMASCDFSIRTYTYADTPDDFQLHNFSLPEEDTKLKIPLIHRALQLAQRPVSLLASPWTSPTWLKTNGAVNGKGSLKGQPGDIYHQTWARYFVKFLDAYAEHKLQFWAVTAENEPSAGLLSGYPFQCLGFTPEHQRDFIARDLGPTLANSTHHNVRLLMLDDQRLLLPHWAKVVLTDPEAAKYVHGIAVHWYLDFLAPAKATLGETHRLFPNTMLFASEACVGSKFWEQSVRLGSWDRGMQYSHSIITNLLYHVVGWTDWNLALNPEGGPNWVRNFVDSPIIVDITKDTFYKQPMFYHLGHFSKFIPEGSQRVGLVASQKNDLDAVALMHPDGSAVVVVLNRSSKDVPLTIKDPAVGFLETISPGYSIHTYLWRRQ
As to conditions: compared with reference derivative 4-methylumbelliferyl glucopyranoside; cited from earlier work.

The conditions of assay [1]: compared with delta-tocopherol; cited from earlier work.
In another assay the test system is B16-F10 cells. Description: Inhibition of α-MSH-stimulated melanogenesis (intracellular melanin) in B16-F10 cells. Format: cell-based. As to conditions: for inhibition at 10 µM / inhibition at 50 µM: Mus musculus, read-out: percent inhibition of intracellular melanin; for inhibition at 10 µM / inhibition at 50 µM / percent inhibition of intracellular melanin: α-MSH (0.1 μM) stimulation; for inhibition at 50 µM / percent inhibition of intracellular melanin: 50 μM. On the procedure:
B16-F10 cells are inoculated in 96-well plates in DMEM (Dulbecco's Modified Eagle's Medium) supplemented with Foetal Calf Serum (FCS) and incubated for 24 hours at 37° C., 5% CO2. Melanogenesis is stimulated by α-MSH (0.1 μM) for 3 or 5 days. Each concentration of active substance is tested in triplicate. Total melanin and intracellular melanin dissolved in lysis buffer are then assayed by reading absorbance at 405 nm. Total proteins are assayed in the lysate according to protocol “SRD/TO/154/012” and the results are expressed in mg melanin/mg proteins. The percentage of activity is calculated as follows: % inhibition=[([…])/NMC]×100 NMC being the normalised mean of the control NMT being the normalised mean of the treated

As for `Cc1cc(O[C@@H]2O[C@H](CO)[C@@H](O)[C@H](O)[C@H]2O)cc2c1O[C@](C)(CCC[C@H](C)CCC[C@H](C)CCCC(C)C)CC2` [Delta-tocopheryl-glucopyranoside, delta-tocopheryl-glucopyranoside], at glucocerebrosidase, the “release of delta-tocopherol by enzymatic hydrolysis” value is reported as “slowly releases delta-tocopherol, with lower kinetics than a reference derivative”. For the same molecule, the antioxidant capacity result in assay [1] is listed as “weak antioxidant capacity compared to that of delta-tocopherol”. Besides, in the assay on B16-F10 cells (B16-F10, 72 h, 3 days), the inhibition at 10 µM stood at 22% and the inhibition at 50 µM was 68%. Moreover, in the assay on B16-F10 cells (B16-F10, 120 h, 5 days), the inhibition at 10 µM is 38% and the inhibition at 50 µM is 90%. For the same molecule, the depigmenting activity result in the assay with B16-F10 cells (compared with delta-tocopherol (see example 1)) was “quite higher than that of delta-tocopherol”.
`Cc1cc(O)cc2c1O[C@](C)(CCC[C@H](C)CCC[C@H](C)CCCC(C)C)CC2` [Delta-tocopherol, delta-tocopherol, reference compound]: the entries for the “percent inhibition of intracellular melanin” value with B16-F10 cells (3 days) and with B16-F10 cells (5 days) were 41% and 48%, respectively.
